Results as given in publication PMC6261607, “Novel high–throughput myofibroblast assays identify agonists with therapeutic potential in pulmonary fibrosis that act via EP2 and EP4 receptors” (PLoS ONE, 2018).
Where a name gives a salt, the structure may show the parent alone. Read-outs that look alike come from different tables or passages of the source.

Legend:
[1] = tested on: normal human lung fibroblasts (NHLF); experiment: Phenotypic high-content assay (HCA) of TGF–β1–induced fibroblast–to–myofibroblast differentiation; type: cell-based; details: for IC50: read-out: HCA IC50; for inhibition at 10 µM: read-out: Effect HCA at 10 µM [% inhibition]
Experimental: (§1) The plate was washed 3 times with starvation medium, e.g. fibroblast basal medium (FBM, Lonza) supplemented with 0.1% faf BSA, 100 units / ml of penicillin and 100 μg / ml of streptomycin and 250 ng / ml amphotericin B, and then starved for 24 h in 30 μl volume. NHLF were differentiated into myofibroblasts by incubation with 5 ng / ml TGF–β1 (from a stock of 20 μg / ml in 4 mM HCl, 1 mg / ml BSA) for 48 h. Compounds were prepared as 5x stocks in starvation medium and added to the starved cells to a final 1x concentration concomitant with TGF–β1 addition. The final DMSO concentration in the assay was 0.6% in all wells. 48 h after TGF–β1 addition, the medium was removed and the cells were fixed in methanol for 10 min at room temperature (RT). After fixation, cells were washed 3 times with 1 x PBS and either stored at 4°C for up to 3 days or further processed. […] Images were acquired on the Opera Phenix confocal high–content screening system (Perkin Elmer) using the 20–x water immersion lens.
(§2) DAPI stained nuclei were used to identify cells. α–SMA and FN regions were then identified and mapped to the corresponding nuclei for background correction, cell segmentation and cell feature computation to identify, classify and weigh over 400 features per cell. The computed features (S1 Table) comprise, but are not limited to, granularity, intensity, texture, area, shape and solidity of a cell in both α–SMA–and FN–expressing regions. The 0% compound effect (5 ng / ml TGF–β1) and the 100% compound effect (0 ng / ml TGF–β1) controls, were used to train and validate a support vector machine (SVM), a supervised learning model with associated learning algorithm that, once successfully validated, was applied to every cell in every well of the assayed microtiter plate. The SVM allowed autonomous weighting and classification of the characteristics and thus enabled the classifier to decide which characteristics were most relevant for the differentiation of the cell types. […] The classification of each cell was aggregated to a cell type ratio per well, represented as the computed percentage effect value per well indicative of the degree of myofibroblast differentiation. E.g. 100% equals complete myofibroblast differentiation, 0% indicates a pure fibroblast population without any signs of differentiation.

NHLF cells = experiment: RealTime–Glo MT viability assay
Experimental: The effect of compounds on cell viability was assessed by quantifying the relative metabolic activity of cells using the non–lytic luminescence–based RealTime–Glo™ MT cell viability assay (Promega) according to the manufacturer’s instructions.

[2] = tested on: normal human lung fibroblasts (NHLF); experiment: Nuclear count in the HCA, standard assay; type: cell-based; details: read-out: Nuclear count IC50
Experimental: as §1, §2

[3] = Homo sapiens, Fibroblast, 48 h, NHLF, 5 ng/ml TGF–β1 for 48 h, compound added with TGF–β1, mean ± SD
[4] = Homo sapiens, Fibroblast, 10 µM compound, 5 ng/ml TGF–β1, 48 h
[5] = Homo sapiens, Fibroblast, standard HCA, NHLF, 5 ng/ml TGF–β1, 48 h
[6] = Homo sapiens, Fibroblast, NHLF, 5 ng/ml TGF–β1 for 48 h, compound added with TGF–β1, mean ± SD
[7] = Homo sapiens, Fibroblast, 48 h, standard HCA, NHLF, 5 ng/ml TGF–β1, 48 h
[8] = standard HCA, NHLF, 5 ng/ml TGF–β1, 48 h
[9] = 10 µM compound, 5 ng/ml TGF–β1, 48 h
[10] = NHLF, 5 ng/ml TGF–β1 for 48 h, compound added with TGF–β1, mean ± SD

SMILES	IC50 [1, 3]	inhibition at 10 µM [1, 4]	Effect on viability at 10 µM [% reduction] (NHLF cells; human, 10 µM)	Effect on viability at 10 µM [% reduction] (NHLF cells; 10 µM compound)	IC50 [2, 7]	other results
[H]/N=C(\N/C(=N/[H])NCCCCCCNC(=N)NC(=N)Nc1ccc(Cl)cc1)Nc1ccc(Cl)cc1 [Chlorhexidine]	5.8 µM	80%	24 % reduction	–	–	–
C[C@@H]1O[C@@H](O[C@@H]2C=C3CC[C@@H]4[C@H](CC[C@]5(C)[C@@H](c6ccc(=O)oc6)CC[C@]45O)[C@@]3(C)CC2)[C@H](O)[C@H](O)[C@H]1O [Proscillaridin A]	–	101%	–	12 % reduction	–	IC50 [2, 5]: > 25 µM; IC50 [1, 6]: 0.001 µM
CCCCC(=O)O[C@H]1CC[C@H]2[C@@H]3CCc4cc(O)ccc4[C@H]3CC[C@]12C [Estradiol Valerate]	9.7 µM	66%	65 % reduction	–	11 µM	–
Oc1c(Cl)cc(Cl)c2cccnc12 [Chloroxine]	5.9 µM	80%	14 % reduction	–	> 25 µM	–
CN[C@@H]1C[C@@H](c2ccc(Cl)c(Cl)c2)c2ccccc21 [Indatraline hydrochloride]	–	67%	–	20 % reduction	–	IC50 [1, 6]: 8.06 µM
CCCCN(CCCC)CCC(O)c1cc2c(Cl)cc(Cl)cc2c2cc(C(F)(F)F)ccc12 (centres unmarked) [Halofantrine hydrochloride]	6.02 µM	101%	–	29 % reduction	5.2 µM	–
Cc1c(-c2ccc(O)cc2)n(Cc2ccc(OCCN3CCCCCC3)cc2)c2ccc(O)cc12.Cl [Bazedoxifene HCl]	–	–	–	–	–	Effect on viability at 10 µM [% reduction] (NHLF cells): 55 % reduction
COc1cccc2c1C(=O)c1c(O)c3c(c(O)c1C2=O)C[C@@](O)(C(=O)CO)C[C@@H]3O[C@H]1C[C@H](N)[C@H](O)[C@H](C)O1 [Doxorubicin hydrochloride]	0.45 µM	64%	20 % reduction	–	> 25 µM	–
Oc1c(Cl)cc(Cl)c(Cl)c1Cc1c(O)c(Cl)cc(Cl)c1Cl [Hexachlorophene]	–	–	–	–	–	IC50 ([2]; Homo sapiens, Fibroblast, 48 h): > 25 µM; inhibition at 10 µM ([1]; Homo sapiens, Fibroblast, 48 h): 93%; IC50 ([1]; Homo sapiens, Fibroblast, 48 h): 6.7 µM
C[C@@H](Oc1cc(-c2cnn(C3CCNCC3)c2)cnc1N)c1c(Cl)ccc(F)c1Cl [Crizotinib (PF–02341066), Crizotinib]	1.5 µM	63%	–	66 % reduction	16 µM	–
COc1ccc(CCN2CCC(Nc3nc4ccccc4n3Cc3ccc(F)cc3)CC2)cc1 [Astemizole]	–	105%	49 % reduction	–	8.3 µM	–
CC(C)(C)CC(C)(C)c1ccc(OCCOCC[N+](C)(C)Cc2ccccc2)cc1 [Benzethonium chloride]	–	–	–	72 % reduction	–	–
COCCOC(=O)C1=C(C)NC(C)=C(C(=O)OC/C=C/c2ccccc2)C1c1cccc([N+](=O)[O-])c1 (centres unmarked) [Cilnidipine]	8.04 µM	92%	–	15 % reduction	> 25 µM	–
CC[C@@]1(O)C(=O)OCc2c1cc1n(c2=O)Cc2cc3ccccc3nc2-1 [Camptothecine (S+)]	–	–	–	5 % reduction	–	IC50 [2, 8]: > 25 µM; Effect HCA at 10 µM [% inhibition] [1, 9]: 105 % inhibition; IC50 [1, 10]: 0.041 µM
Nc1ncn(C2OC(CO)C(O)C2O)c(=O)n1 (centres unmarked) [Azacytidine–5]	–	–	–	–	–	IC50 [2, 8]: > 25 µM; Effect HCA at 10 µM [% inhibition] [1, 9]: 97 % inhibition; IC50 [1, 10]: 3.2 µM; Effect on viability at 10 µM [% reduction] (NHLF cells): –4 % reduction
COc1cccc2c1C(=O)c1c(O)c3c(c(O)c1C2=O)C[C@@](O)(C(C)=O)C[C@@H]3O[C@H]1C[C@H](N)[C@H](O)[C@H](C)O1 [Daunorubicin hydrochloride]	–	–	14 % reduction	–	–	inhibition at 10 µM ([1]; Homo sapiens, Fibroblast, 48 h): 73%; IC50 ([1]; Homo sapiens, Fibroblast, 48 h): 0.27 µM
COc1cccc2c1C(=O)c1c(O)c3c(c(O)c1C2=O)C[C@@](O)(C(=O)CO)C[C@@H]3O[C@H]1C[C@H](N)[C@@H](O)[C@H](C)O1 [Epirubicin hydrochloride]	1.07 µM	93%	28 % reduction	–	–	–
C=C(NC(=O)C(=C)NC(=O)c1csc(C2=N[C@@H]3c4csc(n4)[C@H]4NC(=O)c5csc(n5)[C@H]([C@](C)(O)[C@@H](C)O)NC(=O)[C@H]5CSC(=N5)/C(=C/C)NC(=O)[C@H]([C@@H](C)O)NC(=O)c5csc(n5)[C@]3(CC2)NC(=O)[C@H](C)NC(=O)C(=C)NC(=O)[C@H](C)NC(=O)[C@H]([C@@H](C)CC)N[C@@H]2C=Cc3c([C@H](C)O)cc(nc3[C@H]2O)C(=O)O[C@@H]4C)n1)C(N)=O [Thiostrepton]	–	–	–	–11 % reduction	–	IC50 ([2]; Homo sapiens, Fibroblast, 48 h): 7.6 µM; inhibition at 10 µM ([1]; Homo sapiens, Fibroblast, 48 h): 85%; IC50 ([1]; Homo sapiens, Fibroblast, 48 h): 2.2 µM
CC(=O)O[C@H]1C[C@H](O[C@H]2[C@@H](O)C[C@H](O[C@H]3[C@@H](O)C[C@H](O[C@H]4CC[C@@]5(C)[C@H](CC[C@@H]6[C@@H]5C[C@@H](O)[C@]5(C)[C@@H](C7=CC(=O)OC7)CC[C@]65O)C4)O[C@@H]3C)O[C@@H]2C)O[C@H](C)[C@H]1O[C@@H]1O[C@H](CO)[C@@H](O)[C@H](O)[C@H]1O [Lanatoside C]	–	100%	19 % reduction	–	–	IC50 [2, 5]: > 25 µM; IC50 [1, 6]: 0.035 µM
Cc1cc(C#N)cc(C)c1Oc1nc(Nc2ccc(C#N)cc2)nc(N)c1Br [Etravirine (TMC125), Etravirine]	3.9 µM	100%	–	29 % reduction	> 25 µM	–
CC(C)C[C@H](NC(=O)[C@H](CCc1ccccc1)NC(=O)CN1CCOCC1)C(=O)N[C@@H](Cc1ccccc1)C(=O)N[C@@H](CC(C)C)C(=O)[C@@]1(C)CO1 [Carfilzomib (PR–171), Carfilzomib]	0.004 µM	100%	52 % reduction	–	–	–
C[C@]12CC[C@H](O)C[C@H]1CC[C@@H]1[C@@H]2CC[C@]2(C)[C@@H](C3=CC(=O)OC3)CC[C@]12O [Digitoxigenin]	–	–	–	22 % reduction	–	IC50 ([2]; Homo sapiens, Fibroblast, 48 h): > 25 µM; inhibition at 10 µM ([1]; Homo sapiens, Fibroblast, 48 h): 93%; IC50 ([1]; Homo sapiens, Fibroblast, 48 h): 0.039 µM
COC(=O)Nc1nc2ccc(Sc3ccccc3)cc2[nH]1 [Fenbendazole]	6.7 µM	76%	51 % reduction	–	5.8 µM	–
Cc1nc(Nc2ncc(C(=O)Nc3c(C)cccc3Cl)s2)cc(N2CCN(CCO)CC2)n1 [Dasatinib (BMS–354825), Dasatinib]	1.02 µM	89%	–10 % reduction	–	> 25 µM	–
CC[C@@]1(O)C(=O)OCc2c1cc1n(c2=O)Cc2cc3c(CN(C)C)c(O)ccc3nc2-1 [Topotecan]	0.97 µM	88%	8 % reduction	–	> 25 µM	–
O=C1c2c(O)ccc(O)c2C(=O)c2c(NCCNCCO)ccc(NCCNCCO)c21 [Mitoxantrone dihydrochloride]	0.62 µM	101%	31 % reduction	–	–	–
C=CC(=O)N1CCC[C@@H](n2nc(-c3ccc(Oc4ccccc4)cc3)c3c(N)ncnc32)C1 [PCI–32765 (Ibrutinib), Ibrutinib]	–	–	22 % reduction	–	–	–
O=C(CCCCCCC(=O)Nc1ccccc1)NO [Vorinostat]	–	–	–	24 % reduction	–	–
Cl.Cl.Fc1ccc(C(OCCN2CCN(CCCc3ccccc3)CC2)c2ccc(F)cc2)cc1 [GBR 12909 dihydrochloride]	–	–	–	–	–	Effect HCA at 10 µM [% inhibition] [1, 9]: 56 % inhibition; IC50 [1, 10]: 9.9 µM; Effect on viability at 10 µM [% reduction] (NHLF cells): 13 % reduction
